These results are taken from patent publication US9840478B2 (MERCK SHARP & DOHME CORP., priority 2013, dated 2017).

Molecules are shown by their SMILES.

This assay has as its system HIV-1 (H9IIIB strain). In words: Cell-based HIV infection assay using a reporter (Cell-Based), MT4-GFP cells. To be noted: Human immunodeficiency virus 1, MT4-GFP cells infected with HIV-1 H9IIIB; 50% normal human serum; mean of at least two independent experiments; read-out: Cell-based IP. Summed up:
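MT4-GFP cells (HIV LTR-driven GFP) infected 24 h with HIV-1 H9IIIB at low MOI, then washed and plated with compounds in RPMI + 50% normal human serum, 0.4% DMSO final. Green cells counted at 24 and 48 h; R0 = 48 h/24 h ratio, inhibition normalized to DMSO and triple-drug control; IC50 from 4-parameter fit.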

With `COC(=O)N[C@H](C(=O)Nc1cccc(F)c1CC[C@H]1CNCCN1S(=O)(=O)c1ccccc1)[C@H](CCC1CCOCC1)c1ccc(Cl)c(F)c1` [Example 73, (βR)-4-chloro-3-fluoro-N-(3-fluoro-2-{2-[(2S)-1-(phenylsulfonyl)piperazin-2-yl]ethyl}phenyl)-Nα-(methoxycarbonyl)-β-[2-(tetrahydro-2H-pyran-4-yl)ethyl]-L-phenylalaninamide], the IC50 was 7.6 nM.

As to `CC1(C)CC([C@H](c2ccc(Cl)cc2)[C@H](N)C(=O)Nc2cccc(F)c2CC[C@H]2CNCCN2S(=O)(=O)c2ccccc2)CCO1` (stereo partly drawn) [Example 74, (βR)-4-chloro-β-(2,2-dimethyltetrahydro-2H-pyran-4-yl)-N-(3-fluoro-2-{2-[(2S)-1-(phenylsulfonyl)piperazin-2-yl]ethyl}phenyl)-L-phenylalaninamide], the IC50 turned out to be 24 nM.

As for `CC1(C)CC([C@H](c2ccc(Cl)cc2)[C@H](N)C(=O)Nc2cccc(F)c2CC[C@H]2CNCCN2S(=O)(=O)c2ccccc2)CC(C)(C)O1` [Example 75, (βR)-4-chloro-N-(3-fluoro-2-{2-[(2S)-1-(phenylsulfonyl)piperazin-2-yl]ethyl}phenyl)-β-(2,2,6,6-tetramethyltetrahydro-2H-pyran-4-yl)-L-phenylalaninamide], the IC50 amounted to 150 nM.

With `COC(=O)N[C@H](C(=O)Nc1cccc(F)c1CC[C@H]1CNCCN1S(=O)(=O)c1ccccc1)[C@@H](c1ccc(Cl)cc1)C1CCOC(C)(C)C1` (stereo partly drawn) [Example 76, (βR)-4-chloro-β-(2,2-dimethyltetrahydro-2H-pyran-4-yl)-N-(3-fluoro-2-{2-[(2S)-1-(phenylsulfonyl)piperazin-2-yl]ethyl}phenyl)-Nα-(methoxycarbonyl)-L-phenylalaninamide], the IC50 came out at 9.4 nM.

Regarding `COC(=O)N[C@H](C(=O)Nc1cccc(F)c1CC[C@H]1CNCCN1S(=O)(=O)c1ccccc1)[C@@H](c1ccc(Cl)cc1)C1CC(C)(C)OC(C)(C)C1` [Example 77, (βR)-4-chloro-N-(3-fluoro-2-{2-[(2S)-1-(phenylsulfonyl)piperazin-2-yl]ethyl}phenyl)-Nα-(methoxycarbonyl)-β-(2,2,6,6-tetramethyltetrahydro-2H-pyran-4-yl)-L-phenylalaninamide], the IC50 was determined as 18 nM.

For the compound `CC1(C)CC([C@H](c2ccc(Cl)cc2)[C@H](N)C(=O)Nc2cccc(F)c2CC[C@H]2CNCCN2S(C)(=O)=O)CCO1` (stereo partly drawn) [Example 78, (βR)-4-chloro-β-(2,2-dimethyltetrahydro-2H-pyran-4-yl)-N-(3-fluoro-2-{2-[(2S)-1-(methylsulfonyl)piperazin-2-yl]ethyl}phenyl)-L-phenylalaninamide], the IC50 is 110 nM.

Regarding `COC(=O)N[C@H](C(=O)Nc1cccc(F)c1CC[C@H]1CNCCN1S(C)(=O)=O)[C@@H](c1ccc(Cl)cc1)C1CCOC(C)(C)C1` (stereo partly drawn) [Example 79, (βR)-4-chloro-β-(2,2-dimethyltetrahydro-2H-pyran-4-yl)-N-(3-fluoro-2-{2-[(2S)-1-(methylsulfonyl)piperazin-2-yl]ethyl}phenyl)-Nα-(methoxycarbonyl)-L-phenylalaninamide], the IC50 turned out to be 30 nM.

With `CC(=O)N[C@H](C(=O)Nc1cncc(F)c1CC[C@H]1CNCCN1S(=O)(=O)C1CC1)[C@@H](c1ccc(F)cc1)c1cc(F)cc(F)c1` [Example 80, (βS)-Nα-acetyl-N-(4-{2-[(2S)-1-(cyclopropylsulfonyl)piperazin-2-yl]ethyl}-5-fluoropyridin-3-yl)-3,5-difluoro-β-(4-fluorophenyl)-L-phenylalaninamide], the IC50 came to 66 nM.

Consider `O=C(N[C@H](C(=O)Nc1cncc(F)c1CC[C@H]1CNCCN1S(=O)(=O)C1CC1)[C@@H](c1ccc(F)cc1)c1cc(F)cc(F)c1)C1CC1` [Example 81], for which the IC50 came to 25 nM.

For the compound `O=C(CC1CC1)N[C@H](C(=O)Nc1cncc(F)c1CC[C@H]1CNCCN1S(=O)(=O)C1CC1)[C@@H](c1ccc(F)cc1)c1cc(F)cc(F)c1` [Example 82, (βS)-Nα-(cyclopropylacetyl)-N-(4-{2-[(2S)-1-(cyclopropylsulfonyl)piperazin-2-yl]ethyl}-5-fluoropyridin-3-yl)-3,5-difluoro-β-(4-fluorophenyl)-L-phenylalaninamide], the IC50 came out at 34 nM.

As to `N[C@H](C(=O)Nc1cncc(F)c1CC[C@H]1CNCCN1S(=O)(=O)N1CCCC1)[C@@H](c1ccc(F)cc1)c1cc(F)cc(F)c1` [Example 83, (βS)-3,5-difluoro-β-(4-fluorophenyl)-N-(5-fluoro-4-{2-[(2S)-1-(pyrrolidin-1-ylsulfonyl)piperazin-2-yl]ethyl}pyridin-3-yl)-L-phenylalaninamide], the IC50 came to 8.9 nM.

In the case of `COC(=O)N[C@H](C(=O)Nc1cncc(F)c1CC[C@H]1CNCCN1S(=O)(=O)N1CCCC1)[C@@H](c1ccc(F)cc1)c1cc(F)cc(F)c1` [Example 84, (βS)-3,5-difluoro-β-(4-fluorophenyl)-N-(5-fluoro-4-{2-[(2S)-1-(pyrroldin-1-ylsulfonyl)piperazin-2-yl]ethyl}pyridin-3-yl)-Nα-(methoxycarbonyl)-L-phenylalaninamide], the IC50 was 8.4 nM.

Turning to `CC(=O)N[C@H](C(=O)Nc1cncc(F)c1CC[C@H]1CNCCN1S(=O)(=O)N1CCCC1)[C@@H](c1ccc(F)cc1)c1cc(F)cc(F)c1` [Example 85, (βS)-Nα-acetyl-3,5-difluoro-β-(4-fluorophenyl)-N-(5-fluoro-4-{2-[(2S)-1-(pyrrolidin-1-ylsulfonyl)piperazin-2-yl]ethyl}pyridin-3-yl)-L-phenylalaninamide], the IC50 was 21 nM.

On to `O=C(N[C@H](C(=O)Nc1cncc(F)c1CC[C@H]1CNCCN1S(=O)(=O)N1CCCC1)[C@@H](c1ccc(F)cc1)c1cc(F)cc(F)c1)C1CC1` [Example 86], for which the IC50 stood at 13 nM.

As for `O=C(CC1CC1)N[C@H](C(=O)Nc1cncc(F)c1CC[C@H]1CNCCN1S(=O)(=O)N1CCCC1)[C@@H](c1ccc(F)cc1)c1cc(F)cc(F)c1` [Example 87], the IC50 stood at 16 nM.

Turning to `C[C@@H]1CN(S(=O)(=O)c2ccccc2)[C@@H](CCc2c(F)cccc2NC(=O)CC(c2ccc(F)cc2)c2ccc(F)cc2)CN1` [Example 88, N-(3-fluoro-2-{2-[(2S,5R)-5-methyl-1-(phenylsulfonyl)piperazin-2-yl]ethyl}phenyl)-3,3-bis(4-fluorophenyl) propanamide], the IC50 is 520 nM.

Turning to `C[C@H]1CN(S(=O)(=O)c2ccccc2)[C@@H](CCc2c(F)cccc2NC(=O)CC(c2ccc(F)cc2)c2ccc(F)cc2)CN1` [Example 89, N-(3-fluoro-2-{2-[(2S,5S)-5-methyl-1-(phenylsulfonyl)piperazin-2-yl]ethyl}phenyl)-3,3-bis(4-fluorophenyl) propanamide], the IC50 is 700 nM.

In the case of `C[C@@H]1CNC[C@H](CCc2c(F)cccc2NC(=O)CC(c2ccc(F)cc2)c2ccc(F)cc2)N1S(=O)(=O)c1ccccc1` [Example 90, N-(3-fluoro-2-{2-[(2S,6R)-6-methyl-1-(phenylsulfonyl)piperazin-2-yl]ethyl}phenyl)-3,3-bis(4-fluorophenyl) propanamide], the IC50 worked out at 66 nM.

For the compound `C[C@@H]1CNC[C@@H](CCc2c(F)cccc2NC(=O)CC(c2ccc(F)cc2)c2ccc(F)cc2)N1S(=O)(=O)c1ccccc1` [Example 91, N-(3-fluoro-2-{2-[(2R,6R)-6-methyl-1-(phenylsulfonyl)piperazin-2-yl]ethyl}phenyl)-3,3-bis(4-fluorophenyl) propanamide], the IC50 was 1700 nM.

Regarding `C[C@H]1CNC[C@H](CCc2c(F)cccc2NC(=O)CC(c2ccc(F)cc2)c2ccc(F)cc2)N1S(=O)(=O)c1ccccc1` [Example 92, N-(3-fluoro-2-{2-[(2S,6S)-6-methyl-1-(phenylsulfonyl)piperazin-2-yl]ethyl}phenyl)-3,3-bis(4-fluorophenyl) propanamide], the IC50 is 17 nM.

With `C[C@H]1CNC[C@@H](CCc2c(F)cccc2NC(=O)CC(c2ccc(F)cc2)c2ccc(F)cc2)N1S(=O)(=O)c1ccccc1` [Example 93, N-(3-fluoro-2-{2-[(2R,6S)-6-methyl-1-(phenylsulfonyl)piperazin-2-yl]ethyl}phenyl)-3,3-bis(4-fluorophenyl) propanamide], the IC50 came to 120 nM.

On to `C[C@@H]1CNC[C@H](CCc2c(F)cccc2NC(=O)[C@@H](N)[C@@H](c2ccc(F)cc2)c2cc(F)cc(F)c2)N1S(=O)(=O)c1ccccc1` [Example 94, (βS)-β-(3,5-difluorophenyl)-4-fluoro-N-(3-fluoro-2-{2-[(2S,6R)-6-methyl-1-(phenylsulfonyl)piperazin-2-yl]ethyl}phenyl)-L-phenylalaninamide], for which the IC50 was 24 nM.

Turning to `COC(=O)N[C@H](C(=O)Nc1cccc(F)c1CC[C@H]1CNC[C@H](C)N1S(=O)(=O)c1ccccc1)[C@@H](c1ccc(F)cc1)c1cc(F)cc(F)c1` [Example 95, (βS)-β-(3,5-difluorophenyl)-4-fluoro-N-(3-fluoro-2-{2-[(2S,6S)-6-methyl-1-(phenylsulfonyl)piperazin-2-yl]ethyl}phenyl)-Nα-(methoxycarbonyl)-L-phenylalaninamide], the IC50 amounted to 20 nM.

Consider `C[C@H]1CNC[C@H](CCc2c(F)cccc2NC(=O)[C@@H](N)[C@@H](c2ccc(F)cc2)c2cc(F)cc(F)c2)N1S(=O)(=O)c1ccccc1` [Example 97, (βS)-β-(3,5-difluorophenyl)-4-fluoro-N-(3-fluoro-2-{2-[(2S,6S)-6-methyl-1-(phenylsulfonyl)piperazin-2-yl]ethyl}phenyl)-L-phenylalaninamide], for which the IC50 worked out at 25 nM.

For the compound `C[C@@H]1CN(S(=O)(=O)c2ccccc2)[C@@H](CCc2c(F)cccc2NC(=O)[C@@H](N)[C@@H](c2ccc(Cl)cc2)c2cccc(OC(F)(F)F)c2)CN1` [Example 98, (βS)-4-chloro-N-(3-fluoro-2-{2-[(2S,5R)-5-methyl-1-(phenylsulfonyl)piperazin-2-yl]ethyl}phenyl)-β-[3-(trifluoromethoxy)phenyl]-L-phenylalaninamide], the IC50 was determined as 350 nM.
